Data reported in patent US20040028749A1, “Treating inflammation and associated complications” (priority 2000, published 2004).

What was measured:
Human RBCs = assay: OSCN^−/OCN^− effects on intact RBC glutathione, enzymes and hemolysis; type: cell-based; conditions: lysates and membranes of RBCs exposed to 100 μM OSCN^−/OCN^−; 10 mM DTT
Protocol: After 30 minutes, cells were pelleted by centrifugation at 2000×g for 3 minutes and washed three times in ice-cold HEPES/Hanks' (H & H) buffer. […] RBC lysates and membranes were then prepared by hypotonic lysis and assayed for glutathione and glyceraldehyde-3-phosphate dehydrogenase (GAPDH), glutathione-S-transferase (GST), and lactate dehydrogenase (LDH) activity as described by Beutler (see Beutler (1974) Red Cell Metabolism A Manual of Biochemical Methods Grune and Stratton, Inc., Orlando, Fla.) and for ATPase activity as described below. Hemolysates were incubated for an additional 15 minute with or without 10 mM DTT and reassayed for GAPDH, GST, and ATPases.
Intracellular levels of the SH-containing oxidant scavenger glutathione were assayed. In addition, the activities of three enzymes, GST, GAPDH, and membrane ATPases, which are known to be vulnerable to SH-oxidation-based inactivation, as well as LDH which is not prone to such inactivation were assayed.

[1] = intranasal 1 mM SCN^−, 1 mM Br^− or 100 μM NO2^−
Protocol: The following experiment is performed to determine if by directly manipulating the relative substrate halide composition of the intrabronchial luminal contents, the severity of the resulting EPO-mediated oxidative damage and so the severity of the induced pathologies can be influenced. […] From the day before initiation of aerosol ovalbumin challenge, four groups of guinea pigs (n=15) are subjected to intranasal instillation of 300 μL of PBS (100 mM Cl^−), PBS+1 mM NaSCN, PBS+1 mM NaBr, or PBS+100 μmol NaNO2 in each nostril. Intranasal instillation is performed every 6 hours until the time of analysis. The numbers of animals in each group is determined from power calculations assuming unpaired design. A group size of 15 animals per group allows for detecting a change in Br—Y, PC50, and histologic severity index amongst the OVA-challenged animal of ≧125% of the S.D. of the experimental groups with 90% power, P<0.05.
As for Section VI, Example 10, pulmonary functions, and chloro-, bromo-, and NO2—Y in BAL and whole lung homogenates are determined. […] Multiple linear regression is used to determine factors responsible for changes in PC50 or histologic severity of airway damage. PC50 or histologic severity is treated as a continuous variable and correlated Br—Y and NO2—Y levels in BAL and whole lung by multiple regression.

RBC ATPases = assay: Oxidant inactivation of RBC membrane ATPase activity; type: biochemical, human; conditions: even at 1 mM
Text: Membrane preparations rather than intact RBC were used to allow all oxidants equal access to intra- and extracellular membrane components.

mammalian cells = assay: Cytotoxicity of hypohalous acids for mammalian cells (51Cr release, hemolysis); type: cell-based; conditions: two hours exposure
Protocol: (§1) To determine how generation of HOSCN subserves the physiological function of EOs, i.e., to destroy tissue-invasive parasites, the following experiment was performed. Reagent grade HOSCN was generated by (i) adding human EPO (10 μg/mL) and 1 mM NaSCN to Hank's buffer, (ii) adding five 100 μM boluses of H2O2 at 3 minute intervals, (iii) adding 20 μg/mL of catalase to consume unreacted H2O2, and (iv) removing protein by filtration through a PM-10 membrane (Amicon). HOSCN was then assayed by TNB titration. Mammalian cells used included cultured human and porcine aortic endothelium, rat cardiac myocytes, P338D1 murine lymphoma, and RBCs. Freshly transformed S. mansoni schistosomules (obtained from James Kazura at Case Western University) were also used. Both were exposed to reagent HOSCN for two hours, then assayed for cytotoxicity by (i) ^51Cr release, (ii) hemolysis (mammalian cells) or (iii) light microscopy observations of granularity, lack of motion, and methylene blue dye exclusion (somules). Results in Table 1 indicate that HOSCN killed both schistosomules and host cells. Whereas HOCl and HOBr were equally toxic for host cells and somules, HOSCN was 10-15 times more toxic for the parasite.

[2] = system: S. mansoni schistosomules; assay: Toxicity of hypohalous acids for schistosomules; type: cell-based; conditions: for toxicity for the parasite relative to host cells: schistosomules vs mammalian cells; for LD50 for schistosomules: two hours exposure
Protocol: as §1

human EOs [3] = assay: EO-mediated nitration and bromination of HPA; type: cell-based; conditions: PMA-activated EOs; for EO-mediated nitration of HPA: 50 μM NO2^−, 100 μM Br^−
Protocol: (§2) These studies were performed in the presence of CO2 (5% gas phase) and […] the medium (4.2 mM) to mimic a biologically relevant situation. Leukocytes ([…]) were incubated at 37° C. under 95% air, 5% CO2, in Medium A (Ca^2+/Mg^2+/phenol-free HBSS; Life Technologies, (Gaithersburg, Md.) supplemented with 100 μM NaBr, 50 μM L-arginine, and 200 μM DTPA, pH 7.4 final) in the absence or presence of NaNO2 (0<50 μM, as indicated in the figure legends). […] Cells were activated by addition of PMA (200 nM) and incubated for either 1 hour or the indicated time interval. In some experiments, EOs were activated in the presence of an exogenous NO source by addition of PAPA NONOate (Alexis) for 1 minute following PMA addition. Rates of NO flux were determined spectrophotometrically by reaction of NO with oxyhemoglobin as described in Baek et al. (Baek et al. (1993) J Biol Chem 268:21120) under the identical conditions used for experiments, but in the absence of any added cells. To maintain a final pH of 7.4 during experiments with PAPA NONOate, incubations were performed in Medium B (Medium A containing only 100 mM NaCl and supplemented with 20 mM sodium phosphate, pH 7.4). […] In some cases, leukocyte reaction mixtures also contained one of the following: 1 mM NaN3, 10 mM 3-aminotriazole (Atz), 300 nM catalase (Cat), 300 nM heat-inactivated catalase (hiCat), 10 μg/ml superoxide dismutase (SOD), 1 mM methionine (Met), or 1 mM N^α-acetyl lysine.
(§3) NO2—Y production by isolated EOs was quantified by reversed phase HPLC with photodiode array detection (see Wu et al. (1999) J Biol Chem 274:25933). […] The nitrated (NO2-HPA; 3-(4-hydroxy-3-nitrophenyl)propanoic acid), brominated (Br-HPA; 3-(3-bromo-4-hydroxyphenyl)propanoic acid), and chlorinated (Cl-HPA; 3-(3-chloro-4-hydroxyphenyl)propanoic acid) products of the tyrosine analog, HPA, were routinely quantified by reversed phase HPLC with electrochemical (coulometric) detection on an ESA CoulArray HPLC (Cambridge, Mass.) equipped with UV detector and electrochemical cells (eight channels) (Wu et al. (1999) J Biol Chem 274:25933). […] Authentic standards of NO2-HPA, Br-HPA, and Cl-HPA were prepared by reaction of HPA with a molar equivalent of ONOO^−, HOBr, or HOCl, respectively.
Use of this low molecular mass surrogate for a protein-bound tyrosine residue permitted more facile quantification of the relative capacity of EOs to promote aromatic nitration and halogenation reactions of phenolic targets.

human EOs [4] = assay: NO2—Y formation by activated human EOs; type: cell-based; conditions: agonist 100 nM, exogenous NO2^−
Protocol: as §2, with “HBSS;” for “HBSS; Life Technologies, (Gaithersburg, Md.) supplemented with 100 μM NaBr, 50 μM L-arginine, and 200 μM DTPA, pH 7.4 final) in the absence or presence of NaNO2 (0<50 μM, as indicated in the figure legends).”, “NO2—Y production by isolated EOs was quantified by reversed phase HPLC with photodiode array detection (see Wu et al. (1999) J Biol Chem 274:25933). […]” for “In some cases, leukocyte reaction mixtures also contained one of the following: 1 mM NaN3, 10 mM 3-aminotriazole (Atz), 300 nM catalase (Cat), 300 nM heat-inactivated catalase (hiCat), 10 μg/ml superoxide dismutase (SOD), 1 mM methionine (Met), or 1 mM N^α-acetyl lysine.”

EPO [5] = target: T1, EPO (Homo sapiens, UniProt P11678); conditions: physiologic concentrations (20-120 μM) of SCN^−; 100 μM Br, 100 mM Cl^−
T1 sequence (P11678 251-715 limits assumed): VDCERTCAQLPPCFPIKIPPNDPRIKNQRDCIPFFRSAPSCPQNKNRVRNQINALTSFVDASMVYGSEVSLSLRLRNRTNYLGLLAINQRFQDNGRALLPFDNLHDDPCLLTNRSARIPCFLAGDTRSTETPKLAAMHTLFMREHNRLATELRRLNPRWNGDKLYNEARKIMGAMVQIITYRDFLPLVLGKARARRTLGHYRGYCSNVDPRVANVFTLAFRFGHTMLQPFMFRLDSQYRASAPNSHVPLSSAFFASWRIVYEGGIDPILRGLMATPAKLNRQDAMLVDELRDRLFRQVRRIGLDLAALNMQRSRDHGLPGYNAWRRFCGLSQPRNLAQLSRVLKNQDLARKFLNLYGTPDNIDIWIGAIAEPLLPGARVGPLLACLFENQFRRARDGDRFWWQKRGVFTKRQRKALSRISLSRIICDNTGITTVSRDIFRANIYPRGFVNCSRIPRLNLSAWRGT
T1 sequence (P11678 140-250 limits assumed): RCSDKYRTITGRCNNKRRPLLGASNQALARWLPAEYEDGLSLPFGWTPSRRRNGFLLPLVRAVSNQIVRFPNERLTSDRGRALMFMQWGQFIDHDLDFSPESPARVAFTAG
Text: All other reagents were obtained from Sigma Chemical Co. (St. Louis, Mo.).

EPO [6] = system: EPO
Protocol: The EPO/NO2^−/H2O2 system generates reactive nitrogen species that generates bioactive eicosanoids, e.g. hydroxyeicosatetraenoic acids (HETEs) from unilamellar vesicles comprised of 1-palmitoyl-2-arachidonyl-sn-glycero-3-phosphocholine (PAPC). […] Reaction mixtures consisting of 0.8 mg lipid/mL PAPC, 60 nM EPO, 100 μM NO2^−, 100 ng/mL glucose oxidase, 100 μg/mL glucose were incubated for 2 hours at 37° C. HETEs were analyzed by lipid extraction and HPLC with on-line electrospray ionization tandem mass spectometry (LC/MS/MS).

EPO or LPO = conditions: O2^.− generating system
Protocol: NO decay was determined in phosphate buffer in the absence versus presence of plasma levels of halides using an NO-selective electrode. NO-saturated buffer was added to a continuously stirred reaction mixture.

LPO, or EPO = conditions: 100 μM SCN^−, LPO or EPO present
[7] = wild type mouse
Protocol: Mice were sensitized by intranasal instillation of Aspergillus and aeroallogen challenged one month later with aerosol saline (control) or Aspergillus (antigen challenged). At 2 days before the one-month aeroallogen challenge, one group of antigen-challenged animals received i.p. 0.5 mL of 0.1% KSCN and 0.1% KSCN in drinking water. Three days after the aeroallogen challenge, both groups were challenged with intranasal inoculums of Candida and 6 hours later subjected to BAL and the content of supernatant protein Br—Y determined using stable isotope dilution GC-MS.

[8] = SCN^− supplementation
Protocol: Four experimental groups, each comprised of 15 guinea pigs are utilized for these studies.
The first group is the control and receives KCl in lieu of KClO4 to control for the effect of potassium. […] Perchlorate treatments are initiated three days prior to OVA aerosol challenges and maintained throughout the experimental period until the time of analysis. Specimens are analyzed according to the protocol described. The experimental groups are compared using an appropriate statistical method (i.e., parametric or non-parametric) based upon ANOVA.
All four groups are then pooled to determine correlations between (i) methacholine challenge PC50 and (ii) BAL and whole lung Br—Y and NO2—Y levels. Correlations were also determined between (i) histologic severity and (ii) BAL and/or whole lung Br—Y and NO2—Y levels.

activated EOs = assay: NO2-HPA formation by activated EOs with exogenous NO donor; type: cell-based, human
Protocol: as §2, §3

EPO [9] = target: T1, EPO
Protocol: To determine the relative time courses of HOSCN and cyanate generation, H2O2 was added to a reaction mixture containing phosphate buffered saline (PBS) with 1 mM KSCN, pH 7.4, and 0.4 μM EPO. H2O2 was added by continuous infusion at 50 μM/minute for 20 minutes to simulate the continuous generation of H2O2 by the respiratory burst of an activated EO. An aliquot was (i) removed from the reaction mixture prior to and at various time intervals after initiating addition of H2O2, (ii) supplemented with 40 μg/mL catalase to consume unreacted H2O2, and (iii) placed on ice until subsequent assay of oxidants and cyanate as described.
H2O2 was continuously infused at 50 μM/minute for 20 minutes, simulating the continuous generation of H2O2 by the respiratory burst of an activated EO. Aliquots were removed from the reaction mixture at one-minute intervals and catalase was added to destroy excess unreacted H2O2 prior to assay of TNB-reactive substances and cyanate.

activated human EOs = conditions: 5 mM azide
Protocol: Purified EOs were washed, suspended at 4×10^6/mL in a modified Hank's balanced salt solution composed of 5.3 mM KCl, 138 mM NaCl, 0.4 mM potassium phosphate, 5.3 mM sodium phosphate, 5.5 mM D-glucose, 1.3 mM CaCl2, and 0.5 mM MgCl2, pH 7.4 supplemented with 1 mM KSCN. EOs were divided into three groups that were supplemented with (i) nothing (control), (ii)1 μg/mL phorbol 12-myristate 13-acetate (PMA), or (iii) 1 μg/mL PMA and 5 mM azide. EOs were then incubated at 37° C. for 60 minutes in capless 5 mL round-bottom tubes. The tubes were vortexed every 15 minutes to aid oxygenation. After the incubation, the samples were centrifuged for 10 minutes, 1000×g at 4° C. The supernatants were placed in Microcon concentrators (Amicon, Mass.) with membranes of 3000 Dalton molecular weight cut off and centrifuged for 30 minutes, 13,000×g at 4° C. to remove degranulated proteins. The filtrates were assayed for HOSCN and cyanate quantities.
As a gauge of the potential physiologic relevance of the above findings—all made with a purified reagent system—intact, activated human EOs were examined to determine whether HOSCN and OCN^− are generated. […]

MPO = MPO (Homo sapiens, UniProt P05164); conditions: pre-incubation of the enzyme solution
MPO, sequence (P05164 279-745 limits assumed): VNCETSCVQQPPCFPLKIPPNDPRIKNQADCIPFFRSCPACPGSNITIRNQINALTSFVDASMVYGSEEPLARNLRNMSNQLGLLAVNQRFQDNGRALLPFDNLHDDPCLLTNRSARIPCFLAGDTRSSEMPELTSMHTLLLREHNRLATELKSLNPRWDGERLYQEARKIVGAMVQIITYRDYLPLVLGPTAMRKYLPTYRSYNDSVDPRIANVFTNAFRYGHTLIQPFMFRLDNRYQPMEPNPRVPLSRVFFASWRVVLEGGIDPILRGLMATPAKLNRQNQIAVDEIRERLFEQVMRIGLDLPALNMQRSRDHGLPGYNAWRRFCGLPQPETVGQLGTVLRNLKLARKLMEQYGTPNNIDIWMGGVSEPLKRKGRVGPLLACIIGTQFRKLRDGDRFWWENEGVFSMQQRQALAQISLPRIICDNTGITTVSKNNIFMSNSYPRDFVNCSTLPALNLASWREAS
MPO, sequence (P05164 165-273 limits assumed): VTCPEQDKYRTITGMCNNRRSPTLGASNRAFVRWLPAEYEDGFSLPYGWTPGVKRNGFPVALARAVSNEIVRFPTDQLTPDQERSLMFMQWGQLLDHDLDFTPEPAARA
Protocol: Initial experiments utilized an NO-selective electrode (ISO-NO Mark II, World Precision Instruments, Sarasota, Fla.) to determine whether NO serves as a general substrate for peroxidases. Reactions were performed under conditions where peroxidases were present in catalytic amounts Experiments were performed at 25° C. by immersing the electrode in 10 mL of 0.2 M sodium phosphate buffer, pH 7.0, under air. NO was added to continuously stirred buffer solution from an NO-saturated stock and the rise and fall in NO concentration was continuously monitored using a chart recorder. To determine the effect of H202 and peroxidases on NO levels during steady state catalysis, 10 μl H202 (100 μM final) and 50 μL enzyme (150 nM final) were added to the reaction mixture. Where indicated, solutions were supplemented with NaCl (100 mM) and/or a cell-free O2^.−-generating system comprised of lumazine (0.4 mm) and bovine milk xanthine oxidase (XO, Boehringer Mannheim).
To examine the potential physiological significance of these observations, the effect of additional substrates on peroxidase-catalyzed consumption of NO was examined. MPO was initially used as a model peroxidase because of its abundance at sites of leukocyte recruitment and activation during inflammation and its well-known use of the abundant halide Cl^− as substrate.

[10] = high rates of NO flux (>2 μM/min)
[11] = low rates of NO flux (<2 μM/min)

For `O[C@H](CS)[C@H](O)CS` (racemic) [DTT, dithiothreitol], the “GST, GAPDH and ATPase activity after OSCN^−/OCN^− exposure” value (Human RBCs) was “completely restored the activities of all three enzymes”.

For `Br` [Br^−, bromide], the “levels of Br—Y and NO2—Y and severity of resulting asthma” value (“levels … of resulting asthma” below) [1] was “increase”.

With `OO` [H2O2, hydrogen peroxide] the “inactivation of RBC ATPases” value (RBC ATPases) was “failed to inactivate ATPases”.

For `OBr` [HOBr, hypobromous acid], the “LD50 for mammalian cells” value (mammalian cells) was 10 to 33 µM, the “toxicity for the parasite relative to host cells” value [2] was “equally toxic” and the LD50 for schistosomules [2] was 10 µM.

For `OCl` [HOCI, hypochlorous acid], the “LD50 for mammalian cells” value (mammalian cells) was 10 to 33 µM, the “toxicity for the parasite relative to host cells” value [2] was “equally toxic” and the LD50 for schistosomules [2] was 10 µM.

For `N#CSO` [HOSCN], the “LD50 for mammalian cells” value (mammalian cells) was 200 to 300 µM, the “toxicity for the parasite relative to host cells” value [2] was 10-15 times and the LD50 for schistosomules [2] was 20 µM.

With `CC(=O)N[C@@H](CCCCN)C(=O)O` [N-acetyl lysine, N^α-acetyl lysine] the “cell-dependent bromination of HPA” value (human EOs [3]) was “lack of inhibition”.

For `CSCC[C@H](NC=O)C(=O)N[C@@H](CC(C)C)C(=O)N[C@@H](Cc1ccccc1)C(=O)O` [N-formyl-methionyl-leucyl-phenylalanine], the “NO2—Y levels produced, less than with PMA-stimulated EOs” value (human EOs [4]) was 8 fold.

With `O=NO` [NO2^−, nitrite] the “levels … of resulting asthma” value [1] was “increase”.

For `N#CS` [SCN^−, thiocyanate], the “EPO production of HOBr” value (EPO [5]) was “blocked”, the “HETE generation from PAPC vesicles by EPO/SCN^−/H2O2 system” value (EPO [6]; 100 μM SCN^−) was “no detectable HETEs” and the “HETE generation from PAPC vesicles by EPO/NO2^−/H2O2 system” value (EPO [6]; physiological concentration of SCN^−) was “severely attenuated”. The “peroxidase-mediated NO consumption” value (EPO or LPO) was “attenuation/inhibition of peroxidase-mediated NO consumption”, the “relaxation of preconstricted bronchial rings in response to NO” value (LPO, or EPO) was “do so when high physiologic concentrations of SCN^− are added” and the “BrY reduced from w.t. antigen-challenged” value ([7]; SCN supplemented) was “BrY 86% reduced”. For the same molecule, the Lavage fluid bromotyrosine ([7]; antigen challenge, 0.1% KSCN i.p. and in drinking water) was 196 ± 103 μmol Br—Y/μmol Y, the “mean lung Br—Y/Y” value (NaSCN i.p. and 0.2% in drinking water, OVA challenge) was 0.93 mmol/mol and the “rise of Br—Y/Y after OVA challenge” value (dietary supplementation with SCN^− prior to OVA challenge) was “completely abrogated”. The “levels … of resulting asthma” value [1] was “ameliorates” and the “Br—Y and NO2—Y levels, functional and histologic pulmonary pathology” value [8] was “will reduce”.

In the case of `[N-]=[N+]=[N-].[Na+]` [azide, sodium azide], the “EO-mediated nitration of HPA” value (human EOs [3]) is reported as “inhibited”, the NO2-HPA formation (activated EOs; [10]) is reported as “increasingly less sensitive to inhibition” and the NO2-HPA formation (activated EOs; [11]) is reported as “inhibited”. The “generation of both HOSCN and OCN^−” value (EPO [9]; azide 1 mM) was “nearly completely blocked”, the “HOSCN levels at plateau stage of progression curve” value (EPO [9]; azide added during H2O2 infusion) was “abrupt collapse of HOSCN levels” and the “PMA-stimulated generation of HOSCN and OCN^−” value (activated human EOs) was “severely attenuated”. For the same molecule, the “NO consumption by MPO” value (MPO) was “prevented”.

In the case of `CSCC[C@H](N)C(=O)O` [methionine], the “EO-mediated nitration of HPA” value (human EOs [3]) is reported as “inability of the HOBr scavenger methionine to affect nitration”.

B1: catalase: hydrogen peroxide scavenger (protein, UniProt P00432 2-527, looked up)
Catalase: ADNRDPASDQMKHWKEQRAAQKPDVLTTGGGNPVGDKLNSLTVGPRGPLLVQDVVFTDEMAHFDRERIPERVVHAKGAGAFGYFEVTHDITRYSKAKVFEHIGKRTPIAVRFSTVAGESGSADTVRDPRGFAVKFYTEDGNWDLVGNNTPIFFIRDALLFPSFIHSQKRNPQTHLKDPDMVWDFWSLRPESLHQVSFLFSDRGIPDGHRHMNGYGSHTFKLVNANGEAVYCKFHYKTDQGIKNLSVEDAARLAHEDPDYGLRDLFNAIATGNYPSWTLYIQVMTFSEAEIFPFNPFDLTKVWPHGDYPLIPVGKLVLNRNPVNYFAEVEQLAFDPSNMPPGIEPSPDKMLQGRLFAYPDTHRHRLGPNYLQIPVNCPYRARVANYQRDGPMCMMDNQGGAPNYYPNSFSAPEHQPSALEHRTHFSGDVQRFNSANDDNVTQVRTFYLKVLNEEQRKRLCENIAGHLKDAQLFIQKKAVKNFSDVHPEYGSRIQALLDKYNEEKPKNAVHTYVQHGSHLSAREKANL
For B1, the “EO-mediated nitration of HPA” value (human EOs [3]) was “inhibited”, the NO2-HPA formation (activated EOs; [10]) was “increasingly less sensitive to inhibition” and the NO2-HPA formation (activated EOs; [11]) was “significantly attenuated”.
